Assays:
CK1δ = CK1δ (Homo sapiens (Human), UniProt P48730); test: CK1δ kinase assay (Caliper LABCHIP electrophoretic separation of fluoresceinated peptide substrate and product); type: biochemical; details: 200 pM enzyme, 50 μM ATP, 22 hours at room temperature
In short: (§1)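 Kinase reactions ran 22 h at room temperature, were stopped with EDTA, and phosphorylated product was separated electrophoretically from unphosphorylated fluoresceinated peptide. Compounds were tested at eleven concentrations from 10 mM DMSO stocks. IC50 by non-linear regression.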

CK1ε = CK1ε (Homo sapiens (Human), UniProt P49674); test: CK1ε kinase assay (Caliper LABCHIP electrophoretic separation of fluoresceinated peptide substrate and product); type: biochemical; details: 200 pM enzyme, 50 μM ATP, 22 hours at room temperature
In short: as §1

Sequence of CK1ε (P49674 whole entry): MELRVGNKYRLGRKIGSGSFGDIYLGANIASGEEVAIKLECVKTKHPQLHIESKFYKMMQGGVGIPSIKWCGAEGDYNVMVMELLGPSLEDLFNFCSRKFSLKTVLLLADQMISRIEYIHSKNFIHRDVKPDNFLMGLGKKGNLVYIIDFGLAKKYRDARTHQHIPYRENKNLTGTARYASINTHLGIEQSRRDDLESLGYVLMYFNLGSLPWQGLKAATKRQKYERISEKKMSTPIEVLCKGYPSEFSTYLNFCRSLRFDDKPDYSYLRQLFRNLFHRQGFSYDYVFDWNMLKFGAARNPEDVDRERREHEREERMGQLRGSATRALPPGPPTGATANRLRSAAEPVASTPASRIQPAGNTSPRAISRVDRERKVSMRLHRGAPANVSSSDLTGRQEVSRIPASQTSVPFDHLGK
Sequence of CK1δ (P48730 whole entry): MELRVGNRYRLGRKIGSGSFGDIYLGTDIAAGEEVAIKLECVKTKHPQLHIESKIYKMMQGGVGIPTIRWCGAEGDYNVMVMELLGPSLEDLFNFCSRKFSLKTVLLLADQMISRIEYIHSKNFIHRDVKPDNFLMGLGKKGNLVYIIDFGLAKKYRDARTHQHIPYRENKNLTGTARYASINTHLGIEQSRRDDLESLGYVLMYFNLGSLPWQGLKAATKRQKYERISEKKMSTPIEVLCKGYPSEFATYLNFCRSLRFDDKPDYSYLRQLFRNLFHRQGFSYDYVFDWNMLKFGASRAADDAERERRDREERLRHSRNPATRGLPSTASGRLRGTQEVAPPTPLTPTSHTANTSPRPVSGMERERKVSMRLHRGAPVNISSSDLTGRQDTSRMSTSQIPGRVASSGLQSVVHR

| Structure (SMILES) | IC50 (CK1δ) [nM] | IC50 (CK1ε) [nM] |
| --- | --- | --- |
| O=C(Nc1cn2nc(-c3c(-c4ccc(F)cc4)nc4n3CCCC4)ccc2n1)c1ccnc(F)c1 [Compound 441, 2-Fluoro-N-(6-(2-(4-fluorophenyl)-5,6,7,8-tetrahydroimidazo[1,2-a]pyridin-3-yl)imidazo[1,2-b]pyridazin-2-yl)isonicotinamide] | 0.8 | 5.4 |
| CC(C)(C)C(=O)Nc1cn2nc(-c3c(-c4ccc(F)cc4)ncn3CC3CNC(=O)C3)ccc2n1 (stereo not shown) [Compound 277, N-(6-(4-(4-fluorophenyl)-1-((5-oxo-pyrrolidin-3-yl)methyl)-1H-imidazol-5-yl)imidazo[1,2-b]pyridazin-2-yl)pivalamide] | 0.238 | 3.82 |
| CC(C)(O)C(=O)N1CCC(n2cnc(-c3ccc(F)cc3)c2-c2ccc3nc(NC(=O)c4ccnc(F)c4)cn3n2)CC1 [Compound 55, 2-fluoro-N-(6-(4-(4-fluorophenyl)-1-(1-(2-hydroxy-2-methylpropanoyl)piperidin-4-yl)-1H-imidazol-5-yl)imidazo[1,2-b]pyridazin-2-yl)isonicotinamide] | 0.178 | 1.05 |
| NCC(=O)N1CCC(n2c(C3CC3)nc(-c3ccc(F)cc3)c2-c2ccc3nc(NC(=O)c4cccc(-c5cccnc5)c4)cn3n2)CC1 [Compound 137, N-(6-(1-(1-(2-aminoacetyl)piperidin-4-yl)-2-cyclopropyl-4-(4-fluorophenyl)-1H-imidazol-5-yl)imidazo[1,2-b]pyridazin-2-yl)-3-(pyridin-3-yl)benzamide] | 0.203 | 5.78 |
| Cc1nc(-c2ccc(F)cc2)c(-c2ccc3nc(NC(=O)c4cnn(C)c4)cn3n2)n1C [Compound 359, N-(6-(4-(4-fluorophenyl)-1,2-dimethyl-1H-imidazol-5-yl)imidazo[1,2-b]pyridazin-2-yl)-1-methyl-1H-pyrazole-4-carboxamide] | 0.599 | 3.17 |
| O=C(Nc1cn2nc(-c3c(-c4ccccc4F)ncn3CC(F)F)ccc2n1)c1ccnc(F)c1 [Compound 246, N-(6-(1,(2,2-difluoroethyl)-4-(2-fluorophenyl)-1H-imidazol-5-yl)imidazo[1,2-b]pyridazin-2-yl)-2-fluoroisonicotinamide] | 0.769 | 5.96 |
| O=C(CO)Nc1cn2nc(-c3c(-c4ccc(F)cc4)ncn3CCN3CCOCC3)ccc2n1 [Compound 165, N-(6-(4-(4-fluorophenyl)-1-(2-morpholinoethyl)-1H-imidazol-5-yl)imidazo [1,2-b]pyridazin-2-yl)-2-hydroxyacetamide] | 4.64 | 53.6 |
| Cc1nc(-c2ccc(F)cc2)c(-c2ccc3nc(NC(=O)c4ccnc(F)c4)cn3n2)n1C1CCN(C[C@@H](O)C(F)(F)F)CC1 [Compound 142, (R)-2-fluoro-N-(6-(4-(4-fluorophenyl)-2-methyl-1-(1-(3,3,3-trifluoro-2-hydroxypropyl)piperidin-4-yl)-1H-imidazol-5-yl)imidazo[1,2-b]pyridazin-2-yl)isonicotinamide] | 0.414 | 2.55 |
| CC(C)(C)C1CCC(n2cnc(-c3ccc(F)cc3)c2-c2ccc3nc(NC(=O)c4ccnc(F)c4)cn3n2)CC1 (stereo not shown) [Compound 256, N-(6-(1-(4-tert-butylcyclohexyl)-4-(4-fluorophenyl)-1H-imidazol-5-yl)imidazo[1,2-b]pyridazin-2-yl)-2-fluoroisonicotinamide] | 10.2 | 230 |
| CC(C)(C)C(=O)Nc1cn2nc(-c3c(-c4ccc(F)cc4)ncn3CCO)ccc2n1 [Compound 274, N-(6-(4-(4-fluorophenyl)-1-(2-hydroxyethyl)-1H-imidazol-5-yl)imidazo[1,2-b]pyridazin-2-yl)pivalamide] | 0.635 | 8.98 |
| Cc1nc(C(=O)Nc2cn3nc(-c4c(-c5ccc(F)cc5)nc(C)n4C)ccc3n2)co1 [Compound 371, N-(6-(4-(4-fluorophenyl)-1,2-dimethyl-1H-imidazol-5-yl)imidazo[1,2-b]pyridazin-2-yl)-2-methyl-1,3-oxazole-4-carboxamide] | 2.5 | 19.8 |

Second part, the compound after the results:

| IC50 (CK1δ) [nM] | IC50 (CK1ε) [nM] | Structure (SMILES) |
| --- | --- | --- |
| 0.249 | 0.976 | Cc1nc(-c2cccnc2)sc1C(=O)Nc1cn2nc(-c3c(-c4ccc(F)cc4)ncn3C3CN(C(=O)CN)C3)ccc2n1 [Compound 156, N-(6-(1-(1-(2-aminoacetyl)azetidin-3-yl)-4-(4-fluorophenyl)-1H-imidazol-5-yl)imidazo[1,2-b]pyridazin-2-yl)-4-methyl-2-(pyridin-3-yl)thiazole-5-carboxamide] |
| 0.295 | 2.23 | O=C(Nc1cn2nc(-c3c(-c4ccc(F)cc4)ncn3C3CCN(C(=O)OCC4CC4)CC3)ccc2n1)c1ccnc(F)c1 [Compound 78, cyclopropylmethyl 4-(5-(2-(2-fluoroisonicotinamido)imidazo[1,2-b]pyridazin-6-yl)-4-(4-fluorophenyl)-1H-imidazol-1-yl)piperidine-1-carboxylate] |
| 34.9 | 59.8 | Cc1nc(-c2ccc(F)cc2)c(-c2ccc3nc(NC(=O)N(C)c4ccccc4)cn3n2)n1C [Compound 407, 3-(6-(4-(4-Fluorophenyl)-1,2-dimethyl-1H-imidazol-5-yl)imidazo[1,2-b]pyridazin-2-yl)-1-methyl-1-phenylurea] |
| 0.24 | 2.58 | Cc1cc(C(=O)N2CCC(n3cnc(-c4ccc(F)cc4)c3-c3ccc4nc(NC(=O)c5ccnc(F)c5)cn4n3)CC2)no1 [Compound 51, 2-fluoro-N-(6-(4-(4-fluorophenyl)-1-(1-(5-methylisoxazole-3-carbonyl)piperidin-4-yl)-1H-imidazol-5-yl)imidazo[1,2-b]pyridazin-2-yl)isonicotinamide] |
| 6.8 | 24.2 | O=C(Nc1cn2nc(-c3c(-c4ccc(F)cc4)nc4ccccn34)ccc2n1)c1cc[nH]n1 [Compound 177, N-(6-(2-(4-fluorophenyl)imidazo[1,2-a]pyridin-3-yl)imidazo[1,2-b]pyridazin-2-yl)-1H-pyrazole-3-carboxamide] |
| 0.11 | 1.73 | O=C(Nc1cn2nc(-c3c(-c4ccc(F)cc4)ncn3CCN3CCOCC3)ccc2n1)c1ccnc(N2CCOCC2)c1 [Compound 168, N-(6-(4-(4-fluorophenyl)-1-(2-morpholinoethyl)-1H-imidazol-5-yl)imidazo[1,2-b]pyridazin-2-yl)-2-morpholinoisonicotinamide] |
| 0.296 | 0.796 | O=C(Nc1cn2nc(-c3c(-c4ccc(F)cc4)ncn3C3CCN(C[C@H](O)C(F)(F)F)CC3)ccc2n1)c1cc(F)nc(F)c1 [Compound 91, (S)-2,6-difluoro-N-(6-(4-(4-fluorophenyl)-1-(1-(3,3,3-trifluoro-2-hydroxypropyl)piperidin-4-yl)-1H-imidazol-5-yl)imidazo[1,2-b]pyridazin-2-yl)isonicotinamide] |
| 0.183 | 0.559 | O=C(Nc1cn2nc(-c3c(-c4ccc(F)cc4)ncn3C3CCN(C(=O)c4c[nH]cn4)CC3)ccc2n1)c1ccnc(F)c1 [Compound 72, N-(6-(1-(1-(1H-imidazole-4-carbonyl)piperidin-4-yl)-4-(4-fluorophenyl)-1H-imidazol-5-yl)imidazo(1,2-b]pyridazin-2-yl)-2-fluoroisonicotinamide] |
| 0.233 | 0.457 | CS(=O)(=O)CC(=O)N1CCC(n2cnc(-c3ccc(F)cc3)c2-c2ccc3nc(NC(=O)c4ccnc(F)c4)cn3n2)CC1 [Compound 58, 2-fluoro-N-(6-(4-(4-fluorophenyl)-1-(1-(2-(methylsulfonyl)acetyl)piperidin-4-yl)-1H-imidazol-5-yl)imidazo[1,2-b]pyridazin-2-yl)isonicotinamide] |
| 0.451 | 7.48 | Cc1nc(-c2cccnc2)sc1C(=O)Nc1cn2nc(-c3c(-c4ccc(F)cc4)ncn3C3CN(CCO)C3)ccc2n1 [Compound 155, N-(6-(4-(4-fluorophenyl)-1-(1-(2-hydroxyethyl)azetidin-3-yl)-1H-imidazol-5-yl)imidazo[1,2-b]pyridazin-2-yl)-4-methyl-2-(pyridin-3-yl)thiazole-5-carboxamide] |
| 2.13 | 5.29 | Cc1nc(-c2ccc(F)cc2)c(-c2ccc3nc(NC(=O)c4ccccc4F)cn3n2)n1C [Compound 399, 2-fluoro-N-(6-(4-(4-fluoro-phenyl)-1,2-dimethyl-1H-imidazol-5-yl)imidazo[1,2-b]pyridazin-2-yl)benzamide] |
| 0.278 | 1.1 | O=C(Nc1cn2nc(-c3c(-c4ccc(F)cc4)ncn3C3CCN(C(=O)c4ccsn4)CC3)ccc2n1)c1ccnc(F)c1 [Compound 50, 2-fluoro-N-(6-(4-(4-fluorophenyl)-1-(1-(isothiazole-3-carbonyl)piperidin-4-yl)-1H-imidazol-5-yl)imidazo[1,2-b]pyridazin-2-yl)isonicotinamide] |
| 0.379 | 1.42 | O=C(Nc1cn2nc(-c3c(-c4ccc(F)cc4)ncn3C3CCN(C(=O)c4ccon4)CC3)ccc2n1)c1ccncc1 [Compound 5, N-(6-(4-(4-fluorophenyl)-1-(1-(isoxazole-3-carbonyl)piperidin-4-yl)-1H-imidazol-5-yl)imidazo[1,2-b]pyridazin-2-yl)isonicotinamide] |
| 1.45 | 7.88 | O=C(Nc1cn2nc(-c3c(-c4ccc(F)cc4)ncn3C3CCN(CCC(F)(F)F)CC3)ccc2n1)c1cc(F)nc(F)c1 [Compound 92, 2,6-difluoro-N-(6-(4-(4-fluorophenyl)-1-(1-(3,3,3-trifluoropropyl)piperidin-4-yl)-1H-imidazol-5-yl)imidazo[1,2-b]pyridazin-2-yl)isonicotinamide] |
| 2.28 | 19.1 | Cn1nccc1CN1CCC(n2c(C3CC3)nc(-c3ccc(F)cc3)c2-c2ccc3nc(NC(=O)c4ccnc(F)c4)cn3n2)CC1 [Compound 129, N-(6-(2-cyclopropyl-4-(4-fluorophenyl)-1-(1-((1-methyl-1H-pyrazol-5-yl)methyl)piperidin-4-yl)-1H-imidazol-5-yl)imidazo[1,2-b]pyridazin-2-yl)-2-fluoroisonicotinamide] |

— patent publication US9556179B2 (BRISTOL-MYERS SQUIBB COMPANY, priority 2012, dated 2017)
